Structures can show the parent of a compound that is named as a salt.

In the first experiment the target is hNav1.7 (Homo sapiens (Human), UniProt Q15858). Put plainly: Tritiated sulfonamide competitive binding to membranes from cells expressing hNav1.7 and the β1 subunit.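 Further: Filter-bound radioactivity counted by liquid scintillation, nonspecific binding defined with excess unlabelled ligand, IC50 fitted to percent inhibition of specific binding.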
Chain of hNav1.7 (Q15858 other isoform, or with tags, fused parts or gaps): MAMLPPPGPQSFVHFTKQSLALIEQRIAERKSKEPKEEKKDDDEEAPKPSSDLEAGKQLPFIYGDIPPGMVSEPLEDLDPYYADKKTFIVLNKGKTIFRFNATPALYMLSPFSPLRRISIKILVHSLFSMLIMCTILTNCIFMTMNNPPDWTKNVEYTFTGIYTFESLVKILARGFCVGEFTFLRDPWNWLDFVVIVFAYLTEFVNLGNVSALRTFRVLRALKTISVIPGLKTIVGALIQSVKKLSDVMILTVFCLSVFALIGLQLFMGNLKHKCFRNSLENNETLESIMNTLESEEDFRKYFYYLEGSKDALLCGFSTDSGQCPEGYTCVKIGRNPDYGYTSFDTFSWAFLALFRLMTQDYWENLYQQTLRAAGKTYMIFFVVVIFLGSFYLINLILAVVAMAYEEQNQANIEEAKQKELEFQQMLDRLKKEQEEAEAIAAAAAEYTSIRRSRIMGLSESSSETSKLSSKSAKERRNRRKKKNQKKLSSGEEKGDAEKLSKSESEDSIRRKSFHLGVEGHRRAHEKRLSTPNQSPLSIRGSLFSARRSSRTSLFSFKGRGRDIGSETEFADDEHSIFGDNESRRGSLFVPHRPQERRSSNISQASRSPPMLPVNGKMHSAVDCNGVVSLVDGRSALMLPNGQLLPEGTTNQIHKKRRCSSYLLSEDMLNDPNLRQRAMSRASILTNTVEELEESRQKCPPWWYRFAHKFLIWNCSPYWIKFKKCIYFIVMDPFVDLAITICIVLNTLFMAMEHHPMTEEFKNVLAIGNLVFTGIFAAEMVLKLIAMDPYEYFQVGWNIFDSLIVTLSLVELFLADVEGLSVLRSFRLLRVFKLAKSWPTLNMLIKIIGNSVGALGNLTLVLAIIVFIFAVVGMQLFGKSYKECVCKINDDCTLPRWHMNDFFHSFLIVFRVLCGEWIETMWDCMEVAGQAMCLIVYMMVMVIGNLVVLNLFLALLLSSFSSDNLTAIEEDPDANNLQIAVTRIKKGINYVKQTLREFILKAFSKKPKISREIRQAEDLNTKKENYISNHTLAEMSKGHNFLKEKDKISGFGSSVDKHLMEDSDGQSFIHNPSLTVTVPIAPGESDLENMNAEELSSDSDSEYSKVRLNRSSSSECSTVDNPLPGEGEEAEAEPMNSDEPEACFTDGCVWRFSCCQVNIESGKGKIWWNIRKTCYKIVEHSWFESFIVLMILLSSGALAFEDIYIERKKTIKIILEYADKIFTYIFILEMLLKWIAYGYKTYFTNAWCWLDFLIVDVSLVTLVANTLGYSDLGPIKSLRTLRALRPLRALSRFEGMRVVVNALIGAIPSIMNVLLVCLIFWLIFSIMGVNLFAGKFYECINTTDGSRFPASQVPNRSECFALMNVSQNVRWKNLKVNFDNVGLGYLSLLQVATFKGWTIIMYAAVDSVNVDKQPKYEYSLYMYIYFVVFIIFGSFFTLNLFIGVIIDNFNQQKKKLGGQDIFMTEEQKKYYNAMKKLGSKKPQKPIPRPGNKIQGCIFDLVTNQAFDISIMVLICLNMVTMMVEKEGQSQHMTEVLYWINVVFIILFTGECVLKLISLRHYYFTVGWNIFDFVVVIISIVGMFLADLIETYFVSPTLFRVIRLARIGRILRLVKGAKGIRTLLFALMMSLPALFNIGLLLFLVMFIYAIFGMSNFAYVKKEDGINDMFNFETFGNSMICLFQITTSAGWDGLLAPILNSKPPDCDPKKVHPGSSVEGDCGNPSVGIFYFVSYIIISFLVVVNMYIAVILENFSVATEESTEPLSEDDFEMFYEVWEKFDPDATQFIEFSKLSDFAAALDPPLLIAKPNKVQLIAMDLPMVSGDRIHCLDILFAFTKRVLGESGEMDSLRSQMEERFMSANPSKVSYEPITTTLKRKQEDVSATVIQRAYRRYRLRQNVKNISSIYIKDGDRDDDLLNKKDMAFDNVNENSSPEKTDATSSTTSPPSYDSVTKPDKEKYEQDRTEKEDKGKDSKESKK
Chain of hNav1.7 (Q07699 19-218 partner): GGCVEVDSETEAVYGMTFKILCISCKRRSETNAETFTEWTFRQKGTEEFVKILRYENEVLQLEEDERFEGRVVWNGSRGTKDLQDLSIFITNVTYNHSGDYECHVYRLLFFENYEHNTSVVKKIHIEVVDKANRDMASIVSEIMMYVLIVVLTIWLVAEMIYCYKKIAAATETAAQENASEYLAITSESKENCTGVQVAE
Conditions: not given
In turn, `C[C@H](c1cc(Cl)cc(Cl)c1)N1CCC(COc2cc(F)c(C(=O)NS(=O)(=O)C3CC3)cc2C2CC2)CC1` [Example 269, (R)-5-cyclopropyl-N-(cyclopropylsulfonyl)-4-((1-(1-(3,5-dichlorophenyl)ethyl)piperidin-4-yl)methoxy)-2-fluorobenzamide] registered an IC50 of 3.4 nM.

In turn, `CS(=O)(=O)NC(=O)c1cc(C2CC2)c(CN2CCC(Oc3cc(Cl)cc(OC(F)(F)F)c3)CC2)cc1F` [Example 548, 4-((4-(3-chloro-5-(trifluoromethoxy)phenoxy)piperidin-1-yl)methyl)-5-cyclopropyl-2-fluoro-N-(methylsulfonyl)benzamide, trifluoroacetic acid salt] displayed an IC50 of 3.7 nM.

Compound `O=C(NS(=O)(=O)N1CCC1)c1cc(C2CC2)c(O[C@@H]2CCCN(Cc3cccc(Cl)c3)C2)cc1F` [Example 28, (R)—N-(azetidin-1-ylsulfonyl)-4-((1-(3-chlorobenzyl)piperidin-3-yl)oxy)-5-cyclopropyl-2-fluorobenzamide] came in with an IC50 of 7.4 nM.

Compound `O=C(NS(=O)(=O)N1CCC1)c1cc(C2CC2)c(O[C@@H]2CCCN(c3cc(Cl)cc(Cl)c3)C2)cc1F` [Example 43, (R)—N-(azetidin-1-ylsulfonyl)-5-cyclopropyl-4-((1-(3,5-dichlorophenyl)piperidin-3-yl)oxy)-2-fluorobenzamide] yielded an IC50 of 4.9 nM.

Compound `C[C@@H](c1cc(Cl)cc(Cl)c1)N1C[C@@H]2C[C@H]1CN2Cc1cc(F)c(C(=O)NS(=O)(=O)C2CC2)cc1C1CC1` [Example 564, 5-cyclopropyl-N-(cyclopropylsulfonyl)-4-(((1S,4S)-5-((S)-1-(3,5-dichlorophenyl)ethyl)-2,5-diazabicyclo[2.2.1]heptan-2-yl)methyl)-2-fluorobenzamide, trifluoroacetic acid salt] gave an IC50 of 3.6 nM.

Take `C[C@@H]1CN(Cc2cc(F)c(C(=O)NS(=O)(=O)C3CC3)cc2C2CC2)CCN1[C@H](C)c1cc(Cl)cc(Cl)c1` [Example 570, 5-cyclopropyl-N-(cyclopropylsulfonyl)-4-(((R)-4-((R)-1-(3,5-dichlorophenyl)ethyl)-3-methylpiperazin-1-yl)methyl)-2-fluorobenzamide]: the IC50 was 2.9 nM.

Compound `C[C@H](c1cc(Cl)cc(Cl)c1)N1CCC[C@@H](Oc2cc(F)c(C(=O)NS(C)(=O)=O)cc2C2CC2)C1` (single isomer, unassigned) [Example 51] displayed an IC50 of 2.1 nM.

Still in this experiment, the particulars now being: read-out: Ligand Binding Assay; 100 pM [3H]compound, membranes with hNav1.7 and β1 subunit, 18 h, room temperature.
As for `C[C@H]1[C@@H](Oc2cc(F)c(C(=O)NS(C)(=O)=O)cc2C2CC2)CCCN1Cc1cc(Cl)cc(Cl)c1` [Example 330, 5-cyclopropyl-4-(((2S,3S)-1-(3,5-dichlorobenzyl)-2-methylpiperidin-3-yl)oxy)-2-fluoro-N-(methylsulfonyl)benzamide, trifluoroacetic acid salt], the IC50 was 31.9 nM.

Turning to `COC[C@@H](c1cc(Cl)cc(Cl)c1)N1CCC(COc2cc(F)c(C(=O)NS(=O)(=O)N3CCC3)cc2C2CC2)CC1` (single isomer, unassigned) [Example 166], the IC50 amounted to 3.9 nM.

For the compound `O=C(NS(=O)(=O)C1CC1)c1cc(C2CC2)c(OCC2CCN(C(=O)c3cc(Cl)cc(Cl)c3)CC2)cc1F` [Example 254, 5-Cyclopropyl-N-(cyclopropylsulfonyl)-4-((1-(3,5-dichlorobenzoyl)piperidin-4-yl)methoxy)-2-fluorobenzamide], the IC50 amounted to 26 nM.

As to `CS(=O)(=O)NC(=O)c1cc(C2CC2)c(O[C@@H]2CCCN(Cc3ccc(-c4ccccc4)cc3)C2)cc1F` [Example 426, (R)-4-((1-([1,1′-biphenyl]-4-ylmethyl)piperidin-3-yl)oxy)-5-cyclopropyl-2-fluoro-N-(methylsulfonyl)benzamide, trifluoroacetic acid salt], the IC50 is 3.1 nM.

For the compound `CS(=O)(=O)NC(=O)c1cc(C2CC2)c(OCC2CCN(Cc3ccc(C4CC4)cc3Cl)CC2)cc1F` [Example 415, 4-((1-(2-chloro-4-cyclopropylbenzyl)piperidin-4-yl)methoxy)-5-cyclopropyl-2-fluoro-N-(methylsulfonyl)benzamide, trifluoroacetic acid salt], the IC50 worked out at 6.1 nM.

In the case of `CS(=O)(=O)NC(=O)c1cc(C2CC2)c(OCC2CCN(Cc3ccc(F)cc3Cl)CC2)cc1F` [Example 105, 4-((1-(2-Chloro-4-fluorobenzyl)piperidin-4-yl)methoxy)-5-cyclopropyl-2-fluoro-N-(methylsulfonyl)benzamide], the IC50 came out at 16.3 nM.

For `O=C(NS(=O)(=O)N1CCC1)c1cc(C2CC2)c(OC[C@H]2CCCN(Cc3ccc(F)cc3Cl)C2)cc1F` [Example 339, (S)—N-(azetidin-1-ylsulfonyl)-4-((1-(2-chloro-4-fluorobenzyl)piperidin-3-yl)methoxy)-5-cyclopropyl-2-fluorobenzamide, trifluoroacetic acid salt], the IC50 came to 16.5 nM.

On to `COC[C@](C)(c1cc(Cl)cc(Cl)c1)N1CCC(COc2cc(F)c(C(=O)NS(C)(=O)=O)cc2C2CC2)CC1` (single isomer, unassigned) [Example 202], for which the IC50 was determined as 1.6 nM.

Consider “5-Cyclopropyl-2-fluoro-N-(methylsulfonyl)-4-((1-(1-phenylethyl)-piperidin-4-yl)methoxy)benzamide [Example 146]”, for which the IC50 turned out to be 276 nM.

As to `C[C@@H](c1ccc(F)cc1Cl)N1C[C@H]2C[C@@H]1[C@H](Oc1cc(F)c(C(=O)NS(C)(=O)=O)cc1C1CC1)C2` [Example 450, 4-(((1R,4S,6R)-2-((S)-1-(2-chloro-4-fluorophenyl)ethyl)-2-azabicyclo[2.2.1]heptan-6-yl)oxy)-5-cyclopropyl-2-fluoro-N-(methylsulfonyl)benzamide, trifluoroacetic acid salt], the IC50 amounted to 9.9 nM.

As for `CC1(COc2cc(F)c(C(=O)NS(=O)(=O)C3CC3)cc2C2CC2)CN(c2ncc(C(F)(F)F)cc2Cl)C1` [Example 481, 4-((1-(3-chloro-5-(trifluoromethyl)pyridin-2-yl)-3-methylazetidin-3-yl)methoxy)-5-cyclopropyl-N-(cyclopropylsulfonyl)-2-fluorobenzamide], the IC50 turned out to be 3.1 nM.

With `CS(=O)(=O)NC(=O)c1cc(C2CC2)c(OCC2CN(Cc3cc(F)cc(Cl)c3)C2)cc1F` [Example 75, 4-((1-(3-chloro-5-fluorobenzyl)azetidin-3-yl)methoxy)-5-cyclopropyl-2-fluoro-N-(methylsulfonyl)benzamide], the IC50 came out at 74 nM.

For the compound `CS(=O)(=O)NC(=O)c1cc(C2CC2)c(OCC2CCN(Cc3ccc(F)cc3)CC2)cc1F` [Example 161, 5-Cyclopropyl-2-fluoro-4-((1-(4-fluorobenzyl)piperidin-4-yl)methoxy)-N-(methylsulfonyl)benzamide], the IC50 is 284 nM.

Regarding `CS(=O)(=O)NC(=O)c1cc(C2CC2)c(OCC2CCN(Cc3ccc(C(F)(F)F)c(F)c3)CC2)cc1F` [Example 247, 5-cyclopropyl-2-fluoro-4-((1-(3-fluoro-4-(trifluoromethyl)benzyl)piperidin-4-yl)methoxy)-N-(methylsulfonyl)benzamide], the IC50 is 8.9 nM.

On to `CS(=O)(=O)NC(=O)c1cc(C2CC2)c(CN2[C@@H]3CC[C@H]2C[C@@H](Oc2cc(Cl)cc(OC(F)(F)F)c2)C3)cc1F` [Example 560, 4-(((1R,3r,5S)-3-(3-chloro-5-(trifluoromethoxy)phenoxy)-8-azabicyclo[3.2.1]octan-8-yl)methyl)-5-cyclopropyl-2-fluoro-N-(methylsulfonyl)benzamide, trifluoroacetic acid salt], for which the IC50 amounted to 2.8 nM.

As for `CC1(C)CO[C@H](Cc2cc(Cl)cc(Cl)c2)CN1Cc1cc(F)c(C(=O)NS(C)(=O)=O)cc1C1CC1` [Example 469, (R)-5-cyclopropyl-4-((2-(3,5-dichlorobenzyl)-5,5-dimethylmorpholino)methyl)-2-fluoro-N-(methylsulfonyl)benzamide, trifluoroacetic acid salt], the IC50 worked out at 98.9 nM.

Regarding `CS(=O)(=O)NC(=O)c1cc(C2CC2)c(OCC2CN([C@H](c3ccccc3)c3ccncc3)C2)cc1F` [Example 153, (R)-5-Cyclopropyl-2-fluoro-N-(methylsulfonyl)-4-((1-(phenyl(pyridin-4-yl)methyl)azetidin-3-yl)methoxy)benzamide], the IC50 is 439 nM.

Take `O=C(NS(=O)(=O)C1CC1)c1cc(C2CC2)c(CN2CCC(Oc3ncc(Br)cc3Cl)CC2)cc1F` [Example 473, 4-((4-((5-bromo-3-chloropyridin-2-yl)oxy)piperidin-1-yl)methyl)-5-cyclopropyl-N-(cyclopropylsulfonyl)-2-fluorobenzamide, trifluoroacetic acid salt]: the IC50 is 9.5 nM.

For `COC(C)(C)[C@H](c1cc(Cl)cc(Cl)c1)N1CCC(COc2cc(F)c(C(=O)NS(C)(=O)=O)cc2C2CC2)CC1` (single isomer, unassigned) [Example 206], the IC50 was found to be 1.8 nM.

For `CCS(=O)(=O)NC(=O)c1cc(C2CC2)c(OCC2(C)CN(c3ncc(Cl)cc3F)C2)cc1F` [Example 484, 4-((1-(5-chloro-3-fluoropyridin-2-yl)-3-methylazetidin-3-yl)methoxy)-5-cyclopropyl-N-(ethylsulfonyl)-2-fluorobenzamide], the IC50 amounted to 9.2 nM.

With `O=C(NS(=O)(=O)C1CC1)c1cc(C2CC2)c(OCC2CCN(c3cc(C(F)(F)F)c(Cl)cn3)CC2)cc1F` [Example 555, 4-((1-(5-chloro-4-(trifluoromethyl)pyridin-2-yl)piperidin-4-yl)methoxy)-5-cyclopropyl-N-(cyclopropylsulfonyl)-2-fluorobenzamide], the IC50 was determined as 2.9 nM.

On to `CS(=O)(=O)NC(=O)c1cc(C2CC2)c(O[C@@H]2CCCN(Cc3cc(C(F)(F)F)cc(C4CC4)n3)C2)cc1F` [Example 305, (R)-5-cyclopropyl-4-((1-((6-cyclopropyl-4-(trifluoromethyl)pyridin-2-yl)methyl)piperidin-3-yl)oxy)-2-fluoro-N-(methylsulfonyl)benzamide], for which the IC50 was 3.9 nM.

Still in this experiment, the particulars now being: read-out: Ligand Binding Assay; 100 pM [3H]compound, membranes with hNav1.7 and β1 subunit, 18 h, room temperature; trifluoroacetic acid salt.
In the case of `O=C(NS(=O)(=O)C1CC1)c1cc(C2CC2)c(CN2CCC(Oc3ccc(F)cc3Cl)CC2)cc1F` [Example 506, trifluoroacetic acid salt], the IC50 came to 14.3 nM.

Values taken from US9546164B2 (GENENTECH, INC., priority 2013, dated 2017).
